Data taken from patent US4826872A, “Pharmaceutical composition for treatment of cataract” (Takeda Chemical Industries, Ltd., priority 1986, dated 1989).
Read-outs that look alike come from different tables or passages of the source.

How the values were obtained:
cataract [1] = conditions: instillation; many specialists doubtful; cited from earlier work
cataract [2] = conditions: cited from earlier work
[3] = system: rabbit lens epithelial cells; assay: Test System I: MDA formed by auto-oxidation of docosahexaenoic acid in culture of lens epithelial cells; assay type: cell-based; conditions: for Amount of MDA in culture medium: 24 hours, normal 1.5, control 29.2
From the text: (§1) The inhibitory effect of 2-0-octadecylascorbic acid [compound (I-A)]on lens epithelial cells was studied.
(§2) The lens epithelial cells were obtained from a male white rabbit weighing about 2 kg. Thus, after the […] was sacrificed, the eyeballs were immediately enucleated and subjected to the following aseptic procedures. The eyeballs were washed with Hank's balanced salt solution (pH 7.2), disinfected by 30-second immersion in 80% alcohol and re-washed with the same balanced salt solution. Then, using a small knife, the sclera was cut open from the posterior part of the bulb and the lens was taken out. The retina, vitreous body and the zonule of Zinn were removed. Then, the capsule was punctured and separated from the lens by means of forceps. (The epithelial cells came off with the capsule). The separated capsule was incubated in 0.01% EDTA-0.125% trypsin at 37° C. for 20 minutes After addition of the culture medium mentioned below, the mixture was centrifuged at 1,000 rpm for 2 minutes. By repeating this procedure, the epithelial cells were isolated. These cells were subjected to a few serial passages and used in the experiment. The culture medium was Eagle's medium (MEM) supplemented with 15% bovine fetal serum.
(§3) The following two oxidation systems were used in the experiment: the system using the cytotoxic effect of lipid peroxidation products produced by auto-oxidation of docosahexaenoic acid as an indicator and the system using the cytotoxic effect of activated oxygen species produced by the xanthine-xanthine oxidase system as an indicator. Thus, the confluent cells in dishes were incubated in the following media for 24 hours and the lipid peroxides in the cultures were determined.
(§4) (1) Normal: Cultured in MEM only
(§5) (2) Control: Cultured in MEM supplemented
with 250 μg/ml of docosahexaenoic
(3) Drug: Cultured in MEM supplemented
(§6) The thiobarbituric acid method of Yagi [Anal. Biochem., 95, 351-358 (1979)]was used for Test System I and the method of Nakashima [Chem. Pharm. Bull., 33. 5380-5384 (1985)]and Ohsawa [Anal. Sci., 1, 473-476 (1985)]using 1,3-diphenyl-2-thiobarbituric acid was employed with some modification for Test System II.

[4] = system: rabbit lens epithelial cells; assay: Test System II: MDA formed by activated oxygen species of the xanthine-xanthine oxidase system in culture of lens epithelial cells; assay type: cell-based; conditions: for Amount of MDA in culture medium: 24 hours, normal 0.005, control 0.134
From the text: as §1, §2, §3, §4, §5
with 1 mM of xanthine and 0.01
U/ml of xanthine oxidase
(3) Drug: Cultured in MEM supplemented with
1 mM of xanthine and 0.01 U/ml of
xanthine oxidase plus the drug.
as §6

[5] = system: lens (cataract after streptozocin administration); assay: Slit-lamp observation of progress of cataract in streptozocin-treated rats (Experiment 1); assay type: in vivo, male S.D. strain rats; conditions: vs control group, lens observed 7-35 days after streptozocin
Experimental: Test procedure: 4-week-old male S.D. strain rats were purchased from Shizuoka Prefecture Animals Farmers' Cooperative, grouped by 10 animals after 5 days of preliminary feeding, and subjected to the test. […] To the vitamin E group, tocopherol acetate (50 mg/ml) was given orally in the same way at the dose of […] (400 mg/kg/day). To the control group, tap water was orally given at 200 μl/100 g.
0 No opacity is observed in the lens.
I The surface of the lens is slightly opaque or small vacuoles appear on the equator.
II Vacuoles increase in number and distribute over the cortex while fusing with each other.
III Vacuoles distributed over the most part of the cortex begin to disappear.
IV Most vacuoles have disappeared, and the whole cortex becomes opaque and translucent.
V The nucleoplasm becomes opaque.
VI The whole lens becomes white turbid.

[6] = cited from Mechanism of Cataract Formation in the Human Lens (1981)

Compound: N[C@@H](CCC(=O)N[C@@H](CS)C(=O)NCC(=O)O)C(=O)O [glutathione]
- Effectiveness for treatment of cataract (cataract [1]): effective to some extent

Compound: Nc1nc[nH]n1 [amizole]
- Induction of cataract (cataract [2]; in vivo): induce cataract

Compound: CCCCCCCCCCCCCCCCCCOC1=C(O)C(C(O)CO)OC1=O (stereo not shown) [Compound (I-A), 2-0-octadecylascorbic acid]
- Amount of MDA in culture medium ([3]; drug 2.5 μg/ml): 6.5 ± 0.1 n mole/ml
- Amount of MDA in culture medium ([3]; drug 5 μg/ml): 5.8 ± 0.7 n mole/ml
- Amount of MDA in culture medium ([3]; drug 10 μg/ml): 10.3 ± 0.6 n mole/ml
- Inhibition of formation of MDA (in words) ([3]; higher concentrations): inhibitory effect was attenuated
- Inhibition of formation of MDA (in words) ([3]; low concentrations (<5 μg/ml)): strongly inhibit the formation of MDA
- Effect relative to DL-α-tocopherol (in words) [4]: as effective as DL-α-tocopherol
- Inhibition of MDA (in words) [4]: substantially complete inhibition of MDA
- Amount of MDA in culture medium ([4]; drug 2 μg/ml): 0.024 ± 0.015 n mole/ml
- Amount of MDA in culture medium ([4]; drug 10 μg/ml): 0.016 ± 0.014 n mole/ml
- Amount of MDA in culture medium ([4]; drug 50 μg/ml): 0.001 ± 0.001 n mole/ml
- Delay of progress of cataract (lens stage by slit lamp) ([5]; oral, 100 mg/kg/day first two days then 40 mg/kg/day, Kruskal-Wallis H-test): delayed significantly the progress of cataract

Compound: COc1cccc2c1C(=O)c1c(O)c3c(c(O)c1C2=O)C[C@@](O)(C(=O)CO)C[C@@H]3O[C@H]1C[C@H](N)[C@H](O)[C@H](C)O1 [Adriamycin]
- Induction of cataract (cataract [2]; [6]): induce cataract

Compound: Cc1c(C)c2c(c(C)c1O)CCC(C)(CCCC(C)CCCC(C)CCCC(C)C)O2 (racemic) [DL-α-Tocopherol, DL-α-tocopherol, reference compound]
- Amount of MDA in culture medium ([3]; drug 125 μg/ml): 4.2 ± 0.1 n mole/ml
- Concentration for the same effect relative to compound (I-A) ([3]; multiple of the concentration of compound (I-A)): about 50 times
- Amount of MDA in culture medium ([4]; drug 10 μg/ml): 0.009 ± 0.011 n mole/ml

Compound: CN(N=O)C(=O)N[C@@H](C=O)[C@@H](O)[C@H](O)[C@H](O)CO [streptozocin]
- Induction of cataract (cataract [2]; [6]): induce cataract

Compound: CC(=O)Oc1c(C)c(C)c2c(c1C)CCC(C)(CCC[C@H](C)CCC[C@H](C)CCCC(C)C)O2 (stereo partly shown) [vitamin E, tocopherol acetate, reference compound]
- Delay of progress of cataract (lens stage by slit lamp) ([5]; oral tocopherol acetate 400 mg/kg/day): did not delay the progress of cataract
